Data reported in patent US4513007A, “Method for treating heart disease” (priority 1983, dated 1985).

Columns and labels:
[1] = test system: infarct size, left ventricle; type: in vivo, mongrel dogs
Experimental: IV. In a fourth study the influence of calcium dobesilate on infarct size was evaluated by the double-blind technique. The study was performed in 14 mongrel dogs of either gender weighing about 23-25 kg.
Anesthesia was induced and maintained with sodium pentobarbital (30 mg/kg) and ventilation was maintained through an endotracheal tube with a Harvard respirator providing 200-300 cc of room air/breath at a rate of 18-20/minute.
Coronary artery occlusion in all dogs was obtained by ligation of the LAD just distal to the first septal branch.
The left circumflex artery (LCC) was not ligated and its territory being non-infarcted was used as a control. After ligation of the LAD artery the chest was closed. Calcium dobesilate or the placebo were administered by intravenous perfusion during 7 days according to the following schedule:
0-1 hour after LAD ligation 100 mg/kg i.v. in 100 ml saline
2-3 hours after LAD ligation 100 mg/kg i.v. in 100 ml saline
4-6 hours after LAD ligation 75 mg/kg i.v. in 100 ml saline
7-12 hours after LAD ligation 50 mg/kg i.v. in 100 ml saline
13-24 hours after LAD ligation 50 mg/kg i.v. in 100 ml saline
2-5 days after LAD ligation 3 × 50 mg/kg i.v. in 50 ml saline
6-7 days after LAD ligation 3 × 25 mg/kg i.v. in 50 ml
After 7 days the animals were killed and the hearts were sliced in sections of 1 cm (from the apex to the base). The infarcted and non-infarcted zones of the left ventricle were planimetered to evaluate the infarct size in % in relation to the whole left ventricle. Then the infarcted and non infarcted zones were weighed to determine the size of the infarcted zone in grams in relation to the size of the whole left ventricle.

[2] = test system: cardiac arrhythmia in dogs; experiment: cardiac arrhythmia in dogs induced by electrical stimulation (third study); type: in vivo, mongrel dogs; conditions: 4 hours of stimulation (>180 beats/minute); 50-75 mg/kg i.v. bolus; untreated: tachyarrhythmia bursts, extrasystoles
Experimental: III. In a third study it was evaluated the effect of calcium dobesilate on cardiac arrhythmia in dogs induced by electrical stimulation, to produce EKG changes and cardiac lymphostasis similar to those observed in sick sinus syndrome in man (4,5). […] The other three dogs served as controls. EKG records were made 4 hours later in all animal.

acute toxicity study = conditions: in vivo, mice and rats
rabbit ear = conditions: Roskam's method; U.S. Pat. No. 3,509,207; cited from earlier work
cardiac lymphatics [3] = experiment: post-mortem cardiac lymphangiography in normal dog hearts (first study); type: in vivo, mongrel dogs; conditions: normal myocardium; for No of lymphatics per cm^2 / Equivalence to ventricular surface: 6 h after i.v., Hyaluronidase 500 I.U./kg, calcium dobesilate 50-100 mg/kg; for No of lymphatics per cm^2: controls 1.64 ± 0.11, P <0.001 in relation to control; for Equivalence to ventricular surface: controls 6.6%, P <0.001
Experimental: I. In a first study the effect of calcium dobesilate was compared to Hyaluronidase on the visualization of cardiac lymphatics in normal dog hearts (not infarcted). 18 healthy mongrel dogs of either gender were divided into 3 groups each of 6 animals. […] The dogs in the second group received an intravenous injection of Hyaluronidase (500 I.U./kg) and those of the third group received an i.v. injection of calcium dobesilate (50-100 mg/kg). Post-mortem cardiac lymphangiography was performed after killing the animals and extracting the hearts 6 hours after the administration of either product. The results of the 2 groups were compared to that of the controls. The technique of cardiac lymphangiography used was that described by Szlavy L., Adams D., Hollenberg N. K. and Abrams H., published in the American Heart Journal, Vol. 100, Nr. 3, pp 323-331, Sept. 1980 (8). The technique consisted in injecting a contrast agent (30 g barium sulphate+2-5 ml of Iodamid 420) into the superficial lymphatic vessels of the heart using a Becton-Dickinson lymphangiography set. The contrast agent was injected under gentle manual pressure until the lymphatic vessels in the left ventricle were filled (multiple injections starting from the apex to the base of the heart). The heart was then X-rayed with 5-fold magnification using a 0,1 mm focal spot X-raytube and with exposure factors of 50 KV, 0,01 second and 30 mA. With this technique it was possible to visualize the 40-80 microns lymphatic vessels. A grid was applied on the lymphangiograms which consisted of lines drawn at right angles, 1 cm apart. Each 5×5 cm^2 served as a single unit as it corresponded to 1 cm^2 of the left ventricular myocardium (5-fold magnification was used for filming). A point was counted whenever a crossing coincided with a visualized lymph vessel in the lymphangiogram. In this way a quantitative index was obtained based on the number of lymph vessels/cm^2 or to the percent of the left ventricular surface area.

microvessels = conditions: cited from earlier work
cardiac lymphatics [4] = experiment: cardiac lymphangiography in normal dogs and dogs with LAD coronary artery ligation (second study); type: in vivo, mongrel dogs; conditions: 100 mg/kg i.v.
Experimental: II. The second study was performed to evaluate the influence of calcium dobesilate on the visualization of the lymphatic vessels in the infarcted and non-infarcted zones after ligation of the left anterior descending (LAD) coronary artery in 37 mongrel dogs. In 6 dogs the coronary artery was not occluded (group I). […] Therefore a larger control series was not required. In 6 normal dogs CLS 2210 (calcium dobesilate) was administered in a single dose of 100 mg/kg by intravenous infusion in 100 ml of physiological saline or glucose. Six hours after administration of CLS 2210 (calcium dobesilate) the dogs were killed and cardiac lymphangiography was performed post-mortem (group I) as described above (8). In 7 dogs the coronary artery was occluded and lymphangiography was performed post-mortem 30 minutes after the occlusion (group II). In 6 other dogs the coronary artery was occluded and lymphangiography was performed 360 minutes after coronary artery occlusion (group III). An additional 12 dogs were treated with CLS 2210 (calcium dobesilate) in a single dose of 100 mg/kg by intravenous infusion immediately after coronary artery occlusion. In 6 of these dogs, post-mortem lymphangiography was performed 30 minutes following coronary artery occlusion (group II), and in the other 6 it was performed 360 minutes after occlusion (group III). The infarcted zone of myocardium was identified in vivo by direct inspection after coronary artery occlusion according to the usual indices, including color change and disordered contraction. […] Both the infarcted (LAD) and non-infarcted zones (the non-[…] zone was the region of the left circumflex coronary artery or LCC) were evaluated, the non-infarcted zone serving for comparison. Mean values were presented with the standard error of the mean as the index of dispersion. Statistical analysis was done, where appropriate, with the student t-test or by non-parametric methods in the form of the Wilcoxon ranks sum test or Fisher's s exact test. The null hyothesis was rejected when p was less than 0,05.

[5] = test system: dogs with experimental myocardial infarction; experiment: electrocardiographic tracings in dogs after coronary artery ligation (second study); type: in vivo, mongrel dogs; conditions: group III treated dogs, 360 min, 100 mg/kg i.v.
Experimental: In 7 dogs the coronary artery was occluded and lymphangiography was performed post-mortem 30 minutes after the occlusion (group II). In 6 other dogs the coronary artery was occluded and lymphangiography was performed 360 minutes after coronary artery occlusion (group III). An additional 12 dogs were treated with CLS 2210 (calcium dobesilate) in a single dose of 100 mg/kg by intravenous infusion immediately after coronary artery occlusion. In 6 of these dogs, post-mortem lymphangiography was performed 30 minutes following coronary artery occlusion (group II), and in the other 6 it was performed 360 minutes after occlusion (group III).

cardiac lymphatics [6] = experiment: cardiac lymphangiography in normal dogs and dogs with LAD coronary artery ligation (second study); type: in vivo, mongrel dogs; conditions: intravenous infusion, dogs
[7] = test system: patients with fresh myocardial infarction; type: in vivo, human (patients)
Experimental: V. A preliminary clinical study was conducted on 100 patients with fresh myocardial infarction who had to fulfill the following criteria for admission: typical history of chest pain, with onset of less than six hours duration and having anterior or anteroseptal transmural myocardial infarction evidenced by 12 leads EKG criteria. 50 patients received the usual conventional drugs advocated in the hospital where the study was undertaken (potent analgesic, nitroglycerin, diuretics, lidocain, digitalis) and served as a comparison or control group. The other 50 patients received the conventional drugs and in addition calcium dobesilate which was given as follows: 100 mg/kg of calcium dobesilate by i.v. perfusion in 300 ml glucose, on admission 50-100 mg/kg of calcium dobesilate by i.v. perfusion in 300 ml glucose every hour during the subsequent 3 hours 25 mg/kg of calcium dobesilate by i.v. perfusion in 300 ml glucose every 6 hours until the 3rd-4th day after admission The treatment was then continued, by giving 500-1,000 mg of calcium dobesilate orally thrice daily.

[8] = test system: patients with acute anterior myocardial infarction; conditions: intravenous; cited from earlier work
[9] = test system: dogs with coronary occlusion; conditions: cited from earlier work
[10] = compared to controls (FIGS. 1-3)

O=S(=O)(O)c1cc(O)ccc1O [calcium dobesilate, calcium 2,5-dihydroxybenzenesulfonate]
drug's tolerance during the experimental period ([1]; dog, in vivo): perfect | side-effects attributable to the drug ([1]; dog, in vivo, iv): No side-effects | infarct size % of whole area of left ventricle, planimetry, MEAN ([1]; mean of 8 dogs, i.v. perfusion 7 days, placebo mean 54,1%): 26,2% | infarct size % of left ventricle, weight, MEAN ([1]; mean of 8 dogs, i.v. perfusion 7 days, placebo mean 54,4%): 27,9% | reduction in infarct size compared to placebo ([1]; planimetry and weight analysis, p<0,001): 50 % less | EKG tracings after rapid electrical stimulation [2]: practically normal EKG tracings | LD50 (acute toxicity study; intravenous): 750 mg/kg | LD50 (acute toxicity study; oral): > 4000 mg/kg | mean bleeding time of the rabbit ear (rabbit ear): reduce | number of visualized lymphatics/cm^2 and equivalent left ventricular surface, comparison with Hyaluronidase and control groups (cardiac lymphatics [3]): much higher | No of lymphatics per cm^2 (cardiac lymphatics [3]): 5.22 ± 0.34 per cm^2 | Equivalence to ventricular surface (cardiac lymphatics [3]): 20.9% | anti-oedema effect (microvessels): anti-oedema | capillary fragility and permeability (microvessels): reducing | viscosity lowering effect (microvessels): viscosity lowering effect | mean points count/cm^2, LCC zone (non infarcted) (cardiac lymphatics [4]; group I, normal dogs without MI, 360 min, untreated 1,84 ± 0,18, p <0,001): 5,22 ± 0,34 points/cm^2 | ventricular surface occupied by lymphatics (cardiac lymphatics [4]; group I, normal dogs without MI, 360 min, untreated 7,2%, listed as CLS 2210, 100 mg/kg): 20.9% | ventricular surface occupied by lymphatics (cardiac lymphatics [4]; group I, normal dogs without MI, 360 min, untreated 7,2%, listed as CLS (ca. dobesilate), 100 mg/kg): 20,9% | mean points count/cm^2, LAD zone (cardiac lymphatics [4]; group I, normal dogs without myocardial infarction, 360 min, untreated 1,81 ± 0,18, p <0,001): 5,20 ± 0,34 points/cm^2 | point counts, normal myocardium (cardiac lymphatics [4]; group I, normal dogs, 6 h, p<0,001 vs untreated normal myocardium): 5,22±0,34 points/cm^2 | ventricular surface occupied by lymphatics (cardiac lymphatics [4]; group II, dogs with MI, 30 min, untreated 3,1%): 9,8% | mean points count/cm^2, LAD zone (infarcted) (cardiac lymphatics [4]; group II, dogs with MI, 30 min after occlusion, untreated 0,78 ± 0,07, p <0,01, listed as CLS 2210, 100 mg/kg): 2,43±0,06 points/cm^2 | mean points count/cm^2, LAD zone (infarcted) (cardiac lymphatics [4]; group II, dogs with MI, 30 min after occlusion, untreated 0,78 ± 0,07, p <0,01, listed as CLS (ca. dobesilate), 100 mg/kg): 2,43 ± 0,06 points/cm^2 | mean points count/cm^2, LCC zone (non infarcted) (cardiac lymphatics [4]; group II, dogs with MI, 30 min after occlusion, untreated 1,47 ± 0,07, listed as CLS 2210, 100 mg/kg): 2,75±0,22 points/cm^2 | mean points count/cm^2, LCC zone (non infarcted) (cardiac lymphatics [4]; group II, dogs with MI, 30 min after occlusion, untreated 1,47 ± 0,07, listed as CLS (ca. dobesilate), 100 mg/kg): 2,75 ± 0,22 points/cm^2 | ventricular surface occupied by lymphatics (cardiac lymphatics [4]; group III, dogs with MI, 360 min, untreated 3,2%): 24,8% | mean points count/cm^2, LAD zone (infarcted) (cardiac lymphatics [4]; group III, dogs with MI, 360 min after occlusion, untreated 0,80 ± 0,08, p <0,001, listed as CLS 2210): 6,15±0,18 points/cm^2 | mean points count/cm^2, LAD zone (infarcted) (cardiac lymphatics [4]; group III, dogs with MI, 360 min after occlusion, untreated 0,80 ± 0,08, p <0,001, listed as CLS (ca. dobesilate)): 6,15 ± 0,18 points/cm^2 | mean points count/cm^2, LCC zone (non infarcted) (cardiac lymphatics [4]; group III, dogs with MI, 360 min after occlusion, untreated 2,57 ± 0,05, listed as CLS 2210, 100 mg/kg): 2,45±0,13 points/cm^2 | mean points count/cm^2, LCC zone (non infarcted) (cardiac lymphatics [4]; group III, dogs with MI, 360 min after occlusion, untreated 2,57 ± 0,05, listed as CLS (ca. dobesilate), 100 mg/kg): 2,45 ± 0,13 points/cm^2 | ST-segment elevation [5]: a fall in the ST-segment elevation | most effective infused dose (cardiac lymphatics [6]): 100 mg per kg body weight | precordial ST-segment elevation ([7]; EKG tracings, compared to controls): rapid and much greater decrease | consumption of conventional drugs (analgesic, nitroglycerin, diuretic, lidocain and digitalis) ([7]; compared to control group, i.v. then oral, added to conventional drugs): considerably reduced | chest pain ([7]; compared to controls): much less | serum levels of CPK [7, 10]: significant reduction | serum levels of LDH [7, 10]: significant reduction | serum levels of SGOT [7, 10]: significant reduction | short-term mortality ([7]; controls 15%): 2% | mobilisation of patients (average) ([7]; controls average 7 days): 4 days | side-effects ([7]; human, in vivo): no side-effects | tolerability ([7]; human, in vivo): well tolerated

Hyaluronidase
EKG signs of necrosis [8]: attenuate | No of lymphatics per cm^2 (cardiac lymphatics [3]): 3.45 ± 0.18 per cm^2 | Equivalence to ventricular surface (cardiac lymphatics [3]): 13.8% | ST segment elevation [9]: reduction | infarct size (histological planimetric measurements) [9]: decrease | myocardial CK (creatinine-Kinase) [9]: diminution | number of lymphatic vessels in the area of infarction [9]: increase
